Laboratory results as given in patent US20210330611A1, “THERAPY FOR NEUROLOGICAL DISEASES/DISORDERS” (priority 2020, published 2021).
Counter-ions that a name gives are not always drawn. Like-named read-outs stand apart in the source and are kept apart here.

What was measured:
primary rat microglia [1] = experiment: Cell toxicity (dead cells, size <150 μm2) in LPS assay
[2] = system: LPS-induced microglia activation; experiment: Image-based assay of LPS-induced microglia activation (HTS and dose response); assay type: cell-based, rat; conditions: for IC50 / inhibition at 10 µM: Rattus norvegicus, Microglia; for inhibition at 10 µM: read-out: LPS % inhibition
[3] = system: fibrin-induced microglia activation; experiment: Image-based assay of fibrin-induced microglia activation (HTS and dose response); assay type: cell-based, rat; conditions: for IC50 / inhibition at 10 µM: Rattus norvegicus, Microglia; for inhibition at 10 µM: read-out: Fibrin % inhibition
[4] = system: fibrin- and LPS-induced microglia activation; experiment: cells; assay type: cell-based, rat; conditions: for inhibition at 10 µM: Rattus norvegicus, Microglia
primary rat microglia [5] = experiment: Cell toxicity (dead cells, size <150 μm2) in coated fibrin (cFib) assay; conditions: primary microglia HTS;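 note: share of dead cells sized under 150 µm2 at 10 µM in fibrin-stimulated microglia HTS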
primary rat microglia [6] = system: primary rat microglia
[7] = primary microglia HTS, LPS stimulation, toxicity = cell size <150 μm2
[8] = primary microglia HTS, LPS stimulation, activation = cell size >800 μm2
[9] = primary microglia HTS, fibrin stimulation, activation = cell size >800 μm2
[10] = quadrant by fibrin and LPS inhibition in HTS of 1907 compounds
[11] = HTS of 1907 compounds, quadrant by fibrin and LPS inhibition
[12] = fibrin stimulation, cell size <150 μm2 as marker of toxicity
[13] = primary microglia HTS, fibrin stimulation, cell size >800 μm2 as marker of activation
[14] = classification by fibrin and LPS inhibition in HTS
[15] = primary microglia HTS, LPS stimulation, compounds at 10 μM
[16] = fibrin assay, dead cells (size <150 μm2)
[17] = primary microglia HTS, fibrin stimulation, compounds at 10 μM
[18] = quadrant by fibrin and LPS inhibition, HTS at 10 μM
[19] = primary microglia HTS, 10 μM, LPS assay, cell size <150 μm^2 as marker of toxicity
[20] = primary microglia HTS, 10 μM, LPS-stimulated, cell size >800 μm^2 as marker of activation
[21] = primary microglia HTS, 10 μM, fibrin-stimulated, cell size >800 μm^2 as marker of activation
[22] = fibrin assay, dead cells (size <150 μm2), compounds at 10 μM
[23] = classification by fibrin and LPS inhibition, HTS at 10 μM

In the case of `CN(C)[C@@H]1C(=O)C(C(N)=O)=C(O)[C@@]2(O)C(=O)C3=C(O)c4c(O)ccc(Cl)c4[C@@](C)(O)[C@H]3C[C@@H]12`, the “LPS % cell toxicity” value (primary rat microglia [1]; primary HTS, 10 μM, LPS assay, dead cells size <150 μm2) is reported as 0%, the LPS % inhibition ([2]; primary HTS, 10 μM, LPS-stimulated primary microglia) is reported as 23% and the Fibrin % inhibition ([3]; primary HTS, 10 μM, fibrin-stimulated primary microglia) is reported as 27%. For the same molecule, the “Quadrant (FIG. 5b)” value ([4]; primary HTS, 10 μM) was “Q4”.
For `Br.COc1ccc2c3c1O[C@H]1C[C@@H](O)C=C[C@@]31CCN(C)C2` [Galanthamine Hydrobromide, Galantamine], the “LPS % cell toxicity” value (primary rat microglia [1]; [7]) was 0%, the LPS % inhibition [2, 8] was 9% and the Fibrin % inhibition [3, 9] was 10%. For the same molecule, the “Quadrant (FIG. 5b)” value [4, 10] was “Q4”.
With `CC(=O)[C@@]1(O)CC[C@H]2[C@@H]3CCC4=CC(=O)CC[C@]4(C)[C@H]3CC[C@@]21C` [Hydroxyprogesterone] the “LPS % cell toxicity” value (primary rat microglia [1]; [7]) was 1%, the LPS % inhibition [2, 8] was 33% and the Fibrin % inhibition [3, 9] was 9%. The “Quadrant (FIG. 5b)” value [4, 10] was “Q4”.
In the case of `O=[N+]([O-])O[C@H]1CO[C@H]2[C@@H]1OC[C@H]2O[N+](=O)[O-]` [Isosorbide Dinitrate], the “LPS % cell toxicity” value (primary rat microglia [1]; [7]) is reported as 0% and the “Fibrin % cell toxicity” value (primary rat microglia [5]; fibrin stimulation, toxicity = cell size <150 μm2) is reported as 0%.
In the case of `CCN(CC)C(=O)C1(c2ccccc2)CC1CN` (stereo not shown) [Milnacipran hydrochloride, reference compound], the “LPS % cell toxicity” value (primary rat microglia [1]; primary microglia HTS, LPS stimulation, decreased size (<150 μm^2) as marker of toxicity) is reported as 1%, the IC50 ([2]; 48 h, Table 1, dose response 0.001-20 μM, triplicates, primary rat microglia, 48 h, read-out: LPS IC50) is reported as 20 µM and the inhibition at 10 µM ([2]; 48 h, primary microglia HTS, LPS stimulation, increased cell size (>800 μm^2) as marker of activation) is reported as 31%. The IC50 ([2]; LPS-induced microglia activation, dose response, read-out: LPS IC50 (uM) (Suppl. Table 7)) was 20 µM, the IC50 ([2]; Table 3, read-out: LPS IC50 (uM) (Suppl. Table 7)) was 20 µM and the IC50 ([2]; dose response, LPS-induced microglia activation, read-out: LPS IC50) was 20 µM. The IC50 ([3]; 48 h, Table 1, dose response 0.001-20 μM, triplicates, primary rat microglia, 48 h, read-out: Fibrin IC50) was 8 µM, the IC50 ([3]; Table 3, read-out: Fibrin IC50 (uM) (Suppl. Table 7)) was 8 µM and the IC50 ([3]; dose response, fibrin-induced microglia activation, read-out: Fibrin IC50) was 8 µM. For the same molecule, the IC50 ([3]; fibrin-induced microglia activation, dose response, read-out: Fibrin IC50 (uM) (Suppl. Table 7)) was 8 µM, the inhibition at 10 µM ([3]; primary microglia HTS, fibrin stimulation, increased cell size (>800 μm^2) as marker of activation) was 72% and the “Quadrant (FIG. 5b)” value [4, 11] was “Q3”. For the same molecule, the inhibition at 10 µM ([4]; Table 3, read-out: Cherry-picked Hit (Suppl. Table 7)) was over 50%, the inhibition at 10 µM ([4]; HTS hit classification, read-out: Hit) was over 50% and the “Quadrant (FIG. 5b)” value ([4]; Table 1, screen at 10 μM) was “Q3”. For the same molecule, the “Quadrant (FIG. 5b)” value ([4]; Table 3, screen at 10 μM) was “Q3” and the “Quadrant (FIG. 5b)” value [4, 10] was “Q3”.
With `N[C@@H](CC(=O)N1CCn2c(nnc2C(F)(F)F)C1)Cc1cc(F)c(F)cc1F` [Sitagliptin] the inhibition at 10 µM ([2]; 48 h) was 4%, the “Fibrin % cell toxicity” value (primary rat microglia [5]; [12]) was 0% and the inhibition at 10 µM [3, 13] was -16%. The “LPS % cell toxicity” value (primary rat microglia [6]; rat) was 0% and the “Quadrant (FIG. 5b)” value [4, 14] was “Q4”.
In the case of `O=C(O)CCCO` [Sodium Oxybate], the inhibition at 10 µM ([2]; 48 h) is reported as 34%, the “Fibrin % cell toxicity” value (primary rat microglia [5]; [12]) is reported as 1% and the inhibition at 10 µM [3, 13] is reported as -5%. The “LPS % cell toxicity” value (primary rat microglia [6]; rat) was 0% and the “Quadrant (FIG. 5b)” value [4, 14] was “Q4”.
`CCCCCCCCCCCCCCOS(=O)(=O)[O-].[Na+]` [Sodium Tetradecyl Sulfate] was tested, and the inhibition at 10 µM ([2]; 48 h) was 13%, the “Fibrin % cell toxicity” value (primary rat microglia [5]; [12]) was 1% and the inhibition at 10 µM [3, 13] was -5%. For the same molecule, the “LPS % cell toxicity” value (primary rat microglia [6]; rat) was 0% and the “Quadrant (FIG. 5b)” value [4, 14] was “Q4”.
`CC(=O)N[C@@H](CC(=O)N[C@@H](CCC(=O)O)C(=O)O)C(=O)O` [Spaglumic Acid] was tested, and the inhibition at 10 µM ([2]; 48 h) was 15%, the “Fibrin % cell toxicity” value (primary rat microglia [5]; [12]) was 1% and the inhibition at 10 µM [3, 13] was -15%. The “LPS % cell toxicity” value (primary rat microglia [6]; rat) was 0% and the “Quadrant (FIG. 5b)” value [4, 14] was “Q4”.
`CN[C@@H]1[C@H](O)[C@H](NC)[C@H]2O[C@@]3(O)C(=O)C[C@@H](C)O[C@H]3O[C@@H]2[C@H]1O` [Spectinomycin] was tested, and the inhibition at 10 µM ([2]; 48 h) was 19%, the “Fibrin % cell toxicity” value (primary rat microglia [5]; [12]) was 0% and the inhibition at 10 µM [3, 13] was 14%. The “LPS % cell toxicity” value (primary rat microglia [6]; rat) was 0% and the “Quadrant (FIG. 5b)” value [4, 14] was “Q4”.
`CCCCCCCCNC(C)C(O)c1ccc(SC(C)C)cc1` (stereo not shown) [Suloctidil] was tested, and the inhibition at 10 µM [2, 15] was 3%, the “Fibrin % cell toxicity” value (primary rat microglia [5]; [16]) was 90% and the inhibition at 10 µM [3, 17] was 112%. The “LPS % cell toxicity” value (primary rat microglia [6]; rat) was 0% and the “Quadrant (FIG. 5b)” value [4, 18] was “Q3”.
In the case of `C=C(NC(=O)C(=C)NC(=O)c1csc(C2=N[C@@H]3c4csc(n4)[C@H]4NC(=O)c5csc(n5)[C@H]([C@](C)(O)[C@@H](C)O)NC(=O)[C@H]5CSC(=N5)/C(=C/C)NC(=O)[C@H]([C@@H](C)O)NC(=O)c5csc(n5)[C@]3(CC2)NC(=O)[C@H](C)NC(=O)C(=C)NC(=O)[C@H](C)NC(=O)[C@H]([C@@H](C)CC)N[C@@H]2C=Cc3c([C@H](C)O)cc(nc3[C@H]2O)C(=O)O[C@@H]4C)n1)C(N)=O` [Thiostrepton], the inhibition at 10 µM [2, 15] is reported as 65%, the “Fibrin % cell toxicity” value (primary rat microglia [5]; [16]) is reported as 64% and the inhibition at 10 µM [3, 17] is reported as 109%. The “LPS % cell toxicity” value (primary rat microglia [6]; rat) was 1% and the “Quadrant (FIG. 5b)” value [4, 18] was “Q2”.
`CCNC1(c2cccs2)CCCCC1=O.Cl` (stereo not shown) [Tiletamine Hydrochloride] was tested, and the “LPS % cell toxicity” value (primary rat microglia [1]; [19]) was 0%, the LPS % inhibition [2, 20] was 22% and the Fibrin % inhibition [3, 21] was 8%. For the same molecule, the “Quadrant (FIG. 5b)” value [4, 11] was “Q4”.
With `CC1(C)O[C@@H]2C[C@H]3[C@@H]4CCC5=CC(=O)C=C[C@]5(C)[C@@]4(F)[C@@H](O)C[C@]3(C)[C@]2(C(=O)CO)O1` [Triamcinolone Acetonide] the inhibition at 10 µM [2, 15] was 104%, the “Fibrin % cell toxicity” value (primary rat microglia [5]; [16]) was 4% and the inhibition at 10 µM [3, 17] was 111%. For the same molecule, the “LPS % cell toxicity” value (primary rat microglia [6]; rat) was 4% and the “Quadrant (FIG. 5b)” value [4, 18] was “Q2”.
`CC[C@H]1OC(=O)C[C@@H](O)[C@H](C)[C@@H](O[C@@H]2O[C@H](C)[C@@H](O[C@H]3C[C@@](C)(O)[C@@H](O)[C@H](C)O3)[C@H](N(C)C)[C@H]2O)[C@@H](CC=O)C[C@@H](C)C(=O)/C=C/C(C)=C/[C@@H]1CO[C@@H]1O[C@H](C)[C@@H](O)[C@@H](OC)[C@H]1OC.O=C(O)C(O)C(O)C(=O)O` [Tylosin Tartrate] was tested, and the “LPS % cell toxicity” value (primary rat microglia [1]; [19]) was 0%, the LPS % inhibition [2, 20] was 11% and the Fibrin % inhibition [3, 21] was 9%. For the same molecule, the “Quadrant (FIG. 5b)” value [4, 11] was “Q4”.
Acetophenazine Maleate was tested, and the LPS % inhibition [2, 15] was 15%, the “Fibrin % cell toxicity” value (primary rat microglia [5]; [16]) was 1% and the Fibrin % inhibition [3, 17] was 34%. For the same molecule, the “LPS % cell toxicity” value (primary rat microglia [6]) was 0% and the “Quadrant (FIG. 5b)” value [4, 18] was “Q4”.
With Apramycin Sulfate the LPS % inhibition [2, 15] was 25%, the “Fibrin % cell toxicity” value (primary rat microglia [5]; [16]) was 1% and the Fibrin % inhibition [3, 17] was 11%. For the same molecule, the “LPS % cell toxicity” value (primary rat microglia [6]) was 1% and the “Quadrant (FIG. 5b)” value [4, 18] was “Q4”.
For Arsenic Trioxide, the LPS % inhibition [2, 15] was 14%, the “Fibrin % cell toxicity” value (primary rat microglia [5]; [16]) was 1% and the Fibrin % inhibition [3, 17] was 14%. For the same molecule, the “LPS % cell toxicity” value (primary rat microglia [6]) was 0% and the “Quadrant (FIG. 5b)” value [4, 18] was “Q4”.
For Cyanocobalamin, the LPS % inhibition [2, 15] was 11%, the “Fibrin % cell toxicity” value (primary rat microglia [5]; [22]) was 1% and the Fibrin % inhibition [3, 17] was −1%. For the same molecule, the “LPS % cell toxicity” value (primary rat microglia [6]) was 0% and the “Quadrant (FIG. 5b)” value [4, 23] was “Q4”.
In the case of Eprinomectin, the LPS % inhibition [2, 15] is reported as 8%, the “Fibrin % cell toxicity” value (primary rat microglia [5]; [22]) is reported as 1% and the Fibrin % inhibition [3, 17] is reported as −3%. For the same molecule, the “LPS % cell toxicity” value (primary rat microglia [6]) was 1% and the “Quadrant (FIG. 5b)” value [4, 23] was “Q4”.
Pizotyline Malate was tested, and the LPS % inhibition [2] was 37%, the “Fibrin % cell toxicity” value (primary rat microglia [5]; [12]) was 1% and the Fibrin % inhibition [3, 13] was 8%. For the same molecule, the “LPS % cell toxicity” value (primary rat microglia [6]) was 1% and the “Quadrant (FIG. 5b)” value [4, 14] was “Q4”.
